Results reported in publication PMC8843100, “Development of newly synthesised quinazolinone-based CDK2 inhibitors with potent efficacy against melanoma” (Journal of Enzyme Inhibition and Medicinal Chemistry, 2022).

Key:
Assay in all cases: NCI-60 single dose screen, sulforhodamine B
Format in all cases: cell-based, human
[1] = system: OVCAR-8; details: Ovarian cancer OVCAR-8; single dose 10^−5 M
Summary of the method: (§1)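 10 µM single-point, 48 h-equivalent 2-day exposure after 1-day attachment; SRB read on fixed cells; % relative to no-drug and T0.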

[2] = system: MDA-MB-231/ATCC; details: Breast cancer MDA-MB-231/ATCC; single dose 10^−5 M
Summary of the method: as §1

[3] = system: NCI-H460; details: Non-small cell lung cancer NCI-H460; single dose 10^−5 M
Summary of the method: as §1

[4] = system: MALME-3M; details: Melanoma MALME-3M; single dose 10^−5 M
Summary of the method: as §1

[5] = system: HCT-15; details: Colon cancer HCT-15; single dose 10^−5 M
Summary of the method: as §1

[6] = system: SF-295; details: CNS cancer SF-295; single dose 10^−5 M
Summary of the method: as §1

[7] = system: SNB-75; details: CNS cancer SNB-75; single dose 10^−5 M
Summary of the method: as §1

[8] = system: SN12C; details: Renal cancer SN12C; single dose 10^−5 M
Summary of the method: as §1

[9] = system: RPMI-8226; details: Leukaemia RPMI-8226; single dose 10^−5 M
Summary of the method: as §1

[10] = system: ACHN; details: Renal cancer ACHN; single dose 10^−5 M
Summary of the method: as §1

[11] = system: SR; details: Leukaemia SR; single dose 10^−5 M
Summary of the method: as §1

[12] = system: COLO 205; details: Colon cancer COLO 205; single dose 10^−5 M
Summary of the method: as §1

[13] = system: UACC-257; details: Melanoma UACC-257; single dose 10^−5 M
Summary of the method: as §1

[14] = system: RXF 393; details: Renal cancer RXF 393; single dose 10^−5 M
Summary of the method: as §1

[15] = system: NCI/ADR-RES; details: Ovarian cancer NCI/ADR-RES; single dose 10^−5 M
Summary of the method: as §1

[16] = system: OVCAR-3; details: Ovarian cancer OVCAR-3; single dose 10^−5 M
Summary of the method: as §1

[17] = system: MOLT-4; details: Leukaemia MOLT-4; single dose 10^−5 M
Summary of the method: as §1

[18] = system: HS 578T; details: Breast cancer HS 578T; single dose 10^−5 M
Summary of the method: as §1

[19] = system: UACC-62; details: Melanoma UACC-62; single dose 10^−5 M
Summary of the method: as §1

[20] = system: U251; details: CNS cancer U251; single dose 10^−5 M
Summary of the method: as §1

[21] = system: BT-549; details: Breast cancer BT-549; single dose 10^−5 M
Summary of the method: as §1

[22] = system: NCI-H522; details: Non-small cell lung cancer NCI-H522; single dose 10^−5 M
Summary of the method: as §1

[23] = system: CAKI-1; details: Renal cancer CAKI-1; single dose 10^−5 M
Summary of the method: as §1

| Compound | GI% at 10^−5 M [1] | GI% at 10^−5 M [2] | GI% at 10^−5 M [3] | GI% at 10^−5 M [4] | GI% at 10^−5 M [5] | GI% at 10^−5 M [6] | GI% at 10^−5 M [7] | GI% at 10^−5 M [8] | GI% at 10^−5 M [9] | GI% at 10^−5 M [10] | GI% at 10^−5 M [11] | GI% at 10^−5 M [12] | GI% at 10^−5 M [13] | GI% at 10^−5 M [14] | GI% at 10^−5 M [15] | GI% at 10^−5 M [16] | GI% at 10^−5 M [17] | GI% at 10^−5 M [18] | GI% at 10^−5 M [19] | GI% at 10^−5 M [20] | further results |
| --- | --- | --- | --- | --- | --- | --- | --- | --- | --- | --- | --- | --- | --- | --- | --- | --- | --- | --- | --- | --- | --- |
| O=C(CNn1c(COc2ccccc2)nc2ccccc2c1=O)Nc1ccccc1 [Compound 4a, 2-((4-oxo-2-(phenoxymethyl)quinazolin-3(4H)-yl)amino)-N-phenylacetamide] | – (– means GI < 10%) | 18.56% | – (– means GI < 10%) | – (– means GI < 10%) | – (– means GI < 10%) | – (– means GI < 10%) | 62.34% | 13.08% | – (– means GI < 10%) | – (– means GI < 10%) | – (– means GI < 10%) | – (– means GI < 10%) | – (– means GI < 10%) | – (– means GI < 10%) | – (– means GI < 10%) | – (– means GI < 10%) | – (– means GI < 10%) | 11.86% | – (– means GI < 10%) | – (– means GI < 10%) | GI% at 10^−5 M [21]: – (– means GI < 10%); GI% at 10^−5 M [22]: 13.74%; GI% at 10^−5 M [23]: 12.78% |
| COc1ccc(NC(=O)CNn2c(COc3ccccc3)nc3ccccc3c2=O)cc1 [Compound 4b, N-(4-methoxyphenyl)-2-((4-oxo-2-(phenoxymethyl)quinazolin-3(4H)-yl)amino)acetamide] | – (– means GI < 10%) | 11.38% | – (– means GI < 10%) | – (– means GI < 10%) | – (– means GI < 10%) | – (– means GI < 10%) | 21.9% | 12.37% | – (– means GI < 10%) | – (– means GI < 10%) | – (– means GI < 10%) | – (– means GI < 10%) | – (– means GI < 10%) | – (– means GI < 10%) | – (– means GI < 10%) | – (– means GI < 10%) | – (– means GI < 10%) | – (– means GI < 10%) | – (– means GI < 10%) | – (– means GI < 10%) | GI% at 10^−5 M [21]: – (– means GI < 10%); GI% at 10^−5 M [22]: 12.54%; GI% at 10^−5 M [23]: 21.63% |
| O=C(CNn1c(COc2ccccc2)nc2ccccc2c1=O)Nc1ccc(Cl)cc1 [Compound 4c, N-(4-chlorophenyl)-2-((4-oxo-2-(phenoxymethyl)quinazolin-3(4H)-yl)amino)acetamide] | – (– means GI < 10%) | – (– means GI < 10%) | – (– means GI < 10%) | 12.02% | – (– means GI < 10%) | – (– means GI < 10%) | – (– means GI < 10%) | 19.15% | – (– means GI < 10%) | – (– means GI < 10%) | 10.05% | – (– means GI < 10%) | – (– means GI < 10%) | – (– means GI < 10%) | 10.99% | – (– means GI < 10%) | 15.9% | 19.01% | 14.58% | – (– means GI < 10%) | GI% at 10^−5 M [21]: 12.12%; GI% at 10^−5 M [22]: 24.21%; GI% at 10^−5 M [23]: 23.58% |
| O=c1c2ccccc2nc(COc2ccccc2)n1NS(=O)(=O)c1ccccc1 [Compound 5a, N-(4-oxo-2-(phenoxymethyl)quinazolin-3(4H)-yl)benzenesulfonamide] | – (– means GI < 10%) | 13.77% | – (– means GI < 10%) | – (– means GI < 10%) | – (– means GI < 10%) | – (– means GI < 10%) | 40.06% | 11.46% | – (– means GI < 10%) | 11.23% | – (– means GI < 10%) | – (– means GI < 10%) | – (– means GI < 10%) | – (– means GI < 10%) | – (– means GI < 10%) | – (– means GI < 10%) | – (– means GI < 10%) | – (– means GI < 10%) | – (– means GI < 10%) | – (– means GI < 10%) | GI% at 10^−5 M [21]: – (– means GI < 10%); GI% at 10^−5 M [22]: – (– means GI < 10%); GI% at 10^−5 M [23]: 15.07% |
| Cc1ccc(S(=O)(=O)Nn2c(COc3ccccc3)nc3ccccc3c2=O)cc1 [Compound 5b, 4-methyl-N-(4-oxo-2-(phenoxymethyl)quinazolin-3(4H)-yl)benzenesulfonamide] | – (– means GI < 10%) | 10.94% | – (– means GI < 10%) | – (– means GI < 10%) | – (– means GI < 10%) | – (– means GI < 10%) | 33.03% | – (– means GI < 10%) | – (– means GI < 10%) | 15% | – (– means GI < 10%) | – (– means GI < 10%) | – (– means GI < 10%) | 10.27% | – (– means GI < 10%) | – (– means GI < 10%) | – (– means GI < 10%) | – (– means GI < 10%) | – (– means GI < 10%) | – (– means GI < 10%) | GI% at 10^−5 M [21]: – (– means GI < 10%); GI% at 10^−5 M [22]: – (– means GI < 10%); GI% at 10^−5 M [23]: – (– means GI < 10%) |
| O=c1c2ccccc2nc(COc2ccccc2)n1NS(=O)(=O)c1ccc(Cl)cc1 [Compound 5c, 4-chloro-N-(4-oxo-2-(phenoxymethyl)quinazolin-3(4H)-yl)benzenesulfonamide] | – (– means GI < 10%) | 32.6% | – (– means GI < 10%) | 17.90% | 45.60% | – (– means GI < 10%) | 63.09% | 23.41% | – (– means GI < 10%) | – (– means GI < 10%) | 42.42% | – (– means GI < 10%) | – (– means GI < 10%) | – (– means GI < 10%) | 26.99% | – (– means GI < 10%) | 30.51% | 24.96% | 23.06% | 12.24% | GI% at 10^−5 M [21]: – (– means GI < 10%); GI% at 10^−5 M [22]: 30.63%; GI% at 10^−5 M [23]: 26.93% |
